Paper PMC11992225, “Antibacterial compounds against non-growing and intracellular bacteria” (npj Antimicrobials and Resistance, 2025)
Values after ≈ are worked out from the molar mass of the structure shown. Values joined by “and” are separate entries in the source; they are usually repeats but may differ in a detail not shown here. Equal entries are not always repeated. Where two headings read alike, the source gives them in different places.

How the values were obtained:
[1] = tested on: E. coli CFT073 (UPEC); test: MIC, standard microdilution assay, growing UPEC; type: cell-based, Escherichia coli; details: for MIC: Escherichia coli
Procedure, shortened: (§1)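 Medium: CA-MHB + 40 mM HEPES, pH 7.4 (UPEC, P. aeruginosa, S. aureus); LPM + 30 mM MES, pH 5.5 (UPEC, extra condition); TSB (S. flexneri). Microdilution format, n = 3.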

[2] = tested on: S. aureus DSM2569; test: MIC, standard microdilution assay, growing S. aureus; type: cell-based, Staphylococcus aureus; details: Staphylococcus aureus, DSM2569; S. aureus; CA-MHB pH 7.4; read-out: MIC (μM) CA-MHB
Procedure, shortened: as §1

[3] = tested on: intracellular S. flexneri 5a M90T in TC7 cells; test: microbe, parasite or virus in culture; type: cell-based, Shigella flexneri; details: for IC50: Shigella flexneri, TC7, 14 h
Source text: Nonproliferating bacterial pathogens frequently inhabit intracellular environments, but establishing relevant infection models for high-throughput testing is challenging. Therefore, we firstly tested ability of the hit compounds to cross the eukaryotic cytoplasmic membrane barrier and inhibit growth of S. flexneri within the cytoplasm of the TC7 human colon adenocarcinoma cell line[59]. To this end, we developed a new, fluorescence-based method that enables real-time monitoring of growth of intracellular Shigella. We used S. flexneri 5a M90T strain producing the AfaE adhesin that enhances bacterial adhesion to epithelial cells and allows synchronization of invasion. The strain was further modified to constitutively express super-folder GFP (sfGFP), which enables monitoring bacterial growth by fluorescence measurement. The epithelial cells were grown to confluence and infected with bacteria at an MOI (multiplicity of infection) of 50. […] Following bacterial adhesion and invasion, the cells were incubated with varying concentrations of the hit compounds and intracellular bacterial growth was tracked by measuring green fluorescence.
The cells were split using trypsin, seeded in 96-well plates for infection, and grown to confluence, corresponding to approximately 40,000 cells per well.
A single colony of S. flexneri was inoculated into TSB supplemented with 50 μg/ml spectinomycin and incubated overnight at 37°C with agitation. The overnight culture was diluted 1:200 in fresh TSB, and the bacteria were grown at 37 °C until the OD600 reached 0.3–0.4, corresponding to approximately 2 × 10^7 CFU/ml. Bacteria were pelleted by centrifugation, washed twice with sterile PBS, and resuspended in infection solution (serum-free DMEM supplemented with 20 mM HEPES, pH 7.4). Just prior to infection, the medium was withdrawn, and the cells were washed twice with sterile PBS. The bacterial inoculum (MOI 50, 2 × 10^7 CFU/ml) was added to all wells except the no-infection control. The plates were incubated at room temperature for 15 min to allow bacterial adhesion, followed by a 1 h incubation at 37 °C with 5% CO2 to facilitate bacterial invasion.
Twofold serial dilutions of the drugs were prepared in infection solution containing 50 μg/ml gentamicin in a 96-well plate. After the invasion period, the bacterial inoculum was removed, and the serial dilutions of the drugs were added to the wells, except for the no-drug control. […] […] The experiments were performed in triplicates on separate days.
Statistical significance of the drug effects was assessed using a one-way ANOVA followed by Dunnett’s test, comparing each treatment to the drug-free control. Statistical significance of the differences in chemical characteristics between the hit compounds and the Prestwick library was assessed using a Mann–Whitney test. Statistical significance was set at P ≤ 0.05. A five-parameter logistic equation was used for asymmetric sigmoidal curve fitting and for EC50 and IC50 determination. The Venn diagram in Fig. 1F was prepared using BioVenn web application. Characteristics of the chemical and physical properties of Prestwick library compounds were obtained from Supplementary Table S1 from reference. Characteristics of the hit compounds not included in the Prestwick library were retrieved from the PubChem database.

[4] = tested on: non-growing UPEC CFT073; test: Dose-dependent killing analysis (CFU spot-plating) of stationary-phase UPEC; type: cell-based, Escherichia coli; details: for bactericidal activity against non-growing UPEC (CFU counting): 24 h treatment of stationary phase culture
Experimental: To differentiate between these scenarios, we used CFU counting by agar plating to assess the bactericidal effect on non-growing bacteria. […] Conversely, if no significant reduction in CFU is observed, the regrowth delay is due to PAE without killing. […] Fluoroquinolones are known to cause PAE after treatment of growing bacterial cultures.
For survival analysis, bacteria were cultivated as described for the dose–response dilution-regrowth assay. Assays with UPEC were conducted at the CBCS screening facility using 96-well plates with a 200 μl sample volume, and compounds were dispensed using the Echo® (Labcyte) system. P. aeruginosa and S. aureus samples were treated according to the protocol used for the dilution-regrowth experiments. Treated samples were serially diluted 10-fold in PBS, and 10 μl drops were spot-plated onto rectangular LB agar plates using either a Beckman NXP robot (for UPEC) or an Integra VIAFLO96 electronic pipette (for P. aeruginosa and S. aureus). The LB agar plates were incubated overnight at 37 °C and scanned. Colonies were counted at the spots of the lowest dilution where individual colonies could be accurately distinguished. Each colony was manually marked on a separate image layer using the GNU Image Manipulation Program, and counted using NIST’s Integrated Colony Enumerator (NICE 1.4) software. The experiments were performed in three biological replicates.

[5] = E. coli, LPM pH 5.5, read-out: MIC
[6] = E. coli, pH 7.4, CA-MHB, read-out: MIC (μM) CA-MHB
[7] = TC7 cells infected with GFP-expressing S. flexneri, 14 h treatment
[8] = E. coli, pH 7.4, 1:4 diluted CA-MHB, read-out: MIC (μM) 1:4 CA-MHB

O=C(O)c1cn(C2CC2)c2cc(N3CCNCC3)c(F)cc2c1=O [Ciprofloxacin]
MIC [1, 5]: 0.25 µM (≈ 0.0828 µg/mL) | MIC [1, 6]: 0.125 µM (≈ 0.0414 µg/mL) | MIC [2]: 2 µM (≈ 0.663 µg/mL) | IC50 [3]: 54 nM | Fluorescence intensity (RFU), Mean, 0.5 x MIC [3, 7]: 6160.67 RFU | Fluorescence intensity (RFU), Mean, 2 x MIC [3, 7]: 3512.33 RFU | Fluorescence intensity (RFU), Mean, 4 x MIC [3, 7]: 3078.86 RFU | Fluorescence intensity (RFU), Mean, 8 x MIC [3, 7]: 2399.75 RFU | Fluorescence intensity (RFU), Mean, 16 x MIC [3, 7]: 1781.06 RFU | Fluorescence intensity (RFU), Mean, 32 x MIC [3, 7]: 1734.42 RFU | Fluorescence intensity (RFU), Mean, MIC [3, 7]: 4637.36 RFU

NC1CCN(c2c(F)cc3c(=O)c(C(=O)O)cn(C4CC4)c3c2Cl)C1 (stereo not drawn) [Clinafloxacin]
MIC [1, 6]: 0.0125 µM (≈ 0.00457 µg/mL) | MIC ([1]; see Dataset 1, read-out: MIC (lowest measured MIC for all hit compounds)): 0.0125 µM (≈ 0.00457 µg/mL) | MIC [2]: 0.125 µM (≈ 0.0457 µg/mL) | IC50 [3]: 10 nM | Fluorescence intensity (RFU), Mean, 0.25 x MIC ([3]; TC7 cells infected with GFP-expressing S. flexneri, 14 h treatment, 0.25 x MIC): 7691.46 RFU | Fluorescence intensity (RFU), Mean, 0.5 x MIC [3, 7]: 5544.33 RFU | Fluorescence intensity (RFU), Mean, 2 x MIC [3, 7]: 3160.53 RFU | Fluorescence intensity (RFU), Mean, 4 x MIC [3, 7]: 3034.56 RFU | Fluorescence intensity (RFU), Mean, 8 x MIC [3, 7]: 2732.08 RFU | Fluorescence intensity (RFU), Mean, 16 x MIC [3, 7]: 2021.17 RFU | Fluorescence intensity (RFU), Mean, 32 x MIC [3, 7]: 1621.75 RFU | Fluorescence intensity (RFU), Mean, MIC [3, 7]: 4423.92 RFU

CO[C@H]1/C=C/O[C@@]2(C)Oc3c(C)c(O)c4c(c3C2=O)C2=NC3(CCN(CC(C)C)CC3)NC2=C(NC(=O)/C(C)=C\C=C\[C@H](C)[C@H](O)[C@@H](C)[C@@H](O)[C@@H](C)[C@H](OC(C)=O)[C@@H]1C)C4=O [Rifabutin]
MIC [1, 5]: 2 µM (≈ 1.69 µg/mL) | MIC [1, 8]: 0.625 µM (≈ 0.529 µg/mL) | MIC [1, 6]: 8 µM (≈ 6.78 µg/mL) | MIC [2]: 0.025 µM (≈ 0.0212 µg/mL) | bactericidal activity against non-growing UPEC (CFU counting) [4]: did not kill | log10(CFU/ml) after treatment, single replicates ([4]; E. coli in 1:4 CA-MHB (pH 7.4), concentration 0.25): 9.000 log10(CFU/ml) (2×) and 8.699 log10(CFU/ml) | Killing: average Δlog10(CFU/ml) ([4]; E. coli in 1:4 CA-MHB (pH 7.4), concentration 0.25, vs 8.977 before treatment): 0.078 log10(CFU/ml) | log10(CFU/ml) after treatment, single replicates ([4]; E. coli in 1:4 CA-MHB (pH 7.4), concentration 0.5): 9.230 log10(CFU/ml) and 8.532 log10(CFU/ml) and 8.699 log10(CFU/ml) | Killing: average Δlog10(CFU/ml) ([4]; E. coli in 1:4 CA-MHB (pH 7.4), concentration 0.5, vs 8.977 before treatment): 0.157 log10(CFU/ml) | log10(CFU/ml) after treatment, single replicates ([4]; E. coli in 1:4 CA-MHB (pH 7.4), concentration 1): 9.322 log10(CFU/ml) and 8.477 log10(CFU/ml) and 8.301 log10(CFU/ml) | Killing: average Δlog10(CFU/ml) ([4]; E. coli in 1:4 CA-MHB (pH 7.4), concentration 1, vs 8.977 before treatment): 0.277 log10(CFU/ml) | log10(CFU/ml) after treatment, single replicates ([4]; E. coli in 1:4 CA-MHB (pH 7.4), concentration 2.5): 8.699 log10(CFU/ml) and 8.505 log10(CFU/ml) and 8.000 log10(CFU/ml) | Killing: average Δlog10(CFU/ml) ([4]; E. coli in 1:4 CA-MHB (pH 7.4), concentration 2.5, vs 8.977 before treatment): 0.576 log10(CFU/ml) | log10(CFU/ml) after treatment, single replicates ([4]; E. coli in 1:4 CA-MHB (pH 7.4), concentration 5): 9.041 log10(CFU/ml) and 8.447 log10(CFU/ml) and 9.000 log10(CFU/ml) | Killing: average Δlog10(CFU/ml) ([4]; E. coli in 1:4 CA-MHB (pH 7.4), concentration 5, vs 8.977 before treatment): 0.148 log10(CFU/ml) | log10(CFU/ml) after treatment, single replicates ([4]; E. coli in 1:4 CA-MHB (pH 7.4), concentration 10): 8.903 log10(CFU/ml) and 8.176 log10(CFU/ml) and 8.415 log10(CFU/ml) | Killing: average Δlog10(CFU/ml) ([4]; E. coli in 1:4 CA-MHB (pH 7.4), concentration 10, vs 8.977 before treatment): 0.479 log10(CFU/ml) | log10(CFU/ml) after treatment, single replicates ([4]; E. coli in LPM (pH 5.5), concentration 0.25): 6.954 log10(CFU/ml) and 6.415 log10(CFU/ml) and 7.954 log10(CFU/ml) | Killing: average Δlog10(CFU/ml) ([4]; E. coli in LPM (pH 5.5), concentration 0.25, vs 7.350 before treatment): 0.243 log10(CFU/ml) | log10(CFU/ml) after treatment, single replicates ([4]; E. coli in LPM (pH 5.5), concentration 0.5): 7.000 log10(CFU/ml) and 6.778 log10(CFU/ml) and 7.663 log10(CFU/ml) | Killing: average Δlog10(CFU/ml) ([4]; E. coli in LPM (pH 5.5), concentration 0.5, vs 7.350 before treatment): 0.203 log10(CFU/ml) | log10(CFU/ml) after treatment, single replicates ([4]; E. coli in LPM (pH 5.5), concentration 1): 6.954 log10(CFU/ml) and 6.398 log10(CFU/ml) and 7.681 log10(CFU/ml) | Killing: average Δlog10(CFU/ml) ([4]; E. coli in LPM (pH 5.5), concentration 1, vs 7.350 before treatment): 0.339 log10(CFU/ml) | log10(CFU/ml) after treatment, single replicates ([4]; E. coli in LPM (pH 5.5), concentration 2.5): 7.322 log10(CFU/ml) and 6.845 log10(CFU/ml) and 7.623 log10(CFU/ml) | Killing: average Δlog10(CFU/ml) ([4]; E. coli in LPM (pH 5.5), concentration 2.5, vs 7.350 before treatment): 0.087 log10(CFU/ml) | log10(CFU/ml) after treatment, single replicates ([4]; E. coli in LPM (pH 5.5), concentration 5): 6.477 log10(CFU/ml) and 6.845 log10(CFU/ml) and 7.462 log10(CFU/ml) | Killing: average Δlog10(CFU/ml) ([4]; E. coli in LPM (pH 5.5), concentration 5, vs 7.350 before treatment): 0.422 log10(CFU/ml) | log10(CFU/ml) after treatment, single replicates ([4]; E. coli in LPM (pH 5.5), concentration 10): 7.114 log10(CFU/ml) and 6.954 log10(CFU/ml) and 7.633 log10(CFU/ml) | Killing: average Δlog10(CFU/ml) ([4]; E. coli in LPM (pH 5.5), concentration 10, vs 7.350 before treatment): 0.116 log10(CFU/ml)

C=C[C@]1(C)C[C@@H](OC(=O)CSC(C)(C)CNC(=O)[C@H](N)C(C)C)[C@]2(C)[C@H](C)CC[C@]3(CCC(=O)[C@H]32)[C@@H](C)[C@@H]1O [Valnemulin]
MIC (μM) CA-MHB +PAβN ([1]; E. coli, pH 7.4, CA-MHB with 10 μg/ml efflux pump inhibitor PaβN): 10 µM (≈ 5.65 µg/mL) | MIC [1, 8]: 10 µM (≈ 5.65 µg/mL) | MIC [1, 6]: 20 µM (≈ 11.3 µg/mL) | MIC [2]: 0.125 µM (≈ 0.0706 µg/mL) | bactericidal activity against non-growing UPEC (CFU counting) [4]: not bactericidal
